From patent publication US4840658A, “Algicidal composition” (Sumitomo Chemical Company, Limited, priority 1986, dated 1989)
Counter-ions that a name gives are not always drawn. Like-named read-outs stand apart in the source and are kept apart here.

Key:
[1] = system: Killifish (Oryzias latipes); test: Acute toxicity of unsaturated higher fatty acids to killifish; type: in vivo; conditions: adult killifish, 48 hr, 25° C.
Description: Acute toxicity of the several unsaturated higher fatty acids.
Killifish (Oryzias latipes) at adult stage were acclimated to laboratory conditions in dechlorinated water. Fish were withheld from food for 24 hr prior to the test.
Graded levels of the compounds in 0.5 ml ethanol were added to glass vessels, and then mixed with 100 ml of dechlorinated fresh water. Five fish were introduced to the vessel and maintained for 48 hr at 25° C.
As a solvent control, 0.5% ethanol solution was used.

Heterosigma akashiwo [2] = test: Effect of unsaturated higher fatty acids on viability of Heterosigma akashiwo (cytolysis); type: cell-based; conditions: 0.5 h
Description: Effect of the several unsaturated higher fatty acids on viability of Heterosigma akashiwo.
(§1) Heterosigma akashiwo was incubated in PES medium under 14 hr photoperiod (3000 lux) condition at 20° C. The effects of test compounds were examined on the plankton at exponential growth phase and the medium at the phase generally contained 7×10^4 cells/ml.
(§2) The unsaturated higher fatty acid was accurately weighed and dissolved in benzene. An aliquot of the solution was transferred in a 10 ml volumetric flask. The benzene was removed in vacuo and the residue was dissolved in 0.2 ml of ethanol. A PES medium was added bit by bit to make a 10 ml solution.
(§3) Each of 1 ml of the plankton medium was transferred to the wells of a multi-dish at the cell number of 7×10^4. After good conditions of the plankton were confirmed under an inverted microscope, 1 ml of graded levels of the test solution was mixed. At specified intervals, morphological examination was conducted under the microscope, and effect concentration (EC100 ) was defined as the minimum concentration at which all of the plankton tested were cytolyzed 30 min after introduction of a test material.

[3] = system: marine dinoflagellates (Dinophyceae); test: Algicidal activity against marine dinoflagellates; type: cell-based
[4] = system: Cricosphaera roscoffensis; test: Effects of OTA on viability of plankton species; type: cell-based; set-up: key: +: 100% cytolysis of planktons after 2 hr; ±: No cytolysis but no movement; -: No effect
Description: as §1, §2, §3
(§4) Effect of 6Z, 9Z, 12Z, 15Z-octadecateraeonic acid (OTA) on viability of several plankton species.
(§5) The test system was the same as in Experiment 1, except test concentration of 5 and 25 ppm and test duration of 48 hr.

Tetraselmis cordiformis = test: Effects of OTA on viability of plankton species; type: cell-based; set-up: key: +: 100% cytolysis of planktons after 2 hr; ±: No cytolysis but no movement; -: No effect
Description: as §1, §2, §3, §4, §5

Nephroselmis sp. = test: Effects of OTA on viability of plankton species; type: cell-based
Description: as §1, §2, §3, §4, §5

Stephanopyris palmeriana = test: Effects of OTA on viability of plankton species; type: cell-based
Description: as §1, §2, §3, §4, §5

Heterosigma akashiwo [5] = test: Effects of OTA on viability of plankton species; type: cell-based
Description: as §1, §2, §3, §4, §5

Cryptomonas sp. = test: Effects of OTA on viability of plankton species; type: cell-based
Description: as §1, §2, §3, §4, §5

Chlamydomonas sp. = test: Effects of OTA on viability of plankton species; type: cell-based
Description: as §1, §2, §3, §4, §5

Oltmannsiella sp. = test: Effects of OTA on viability of plankton species; type: cell-based
Description: as §1, §2, §3, §4, §5

Pyraminonas sp. = test: Effects of OTA on viability of plankton species; type: cell-based
Description: as §1, §2, §3, §4, §5

Chaetoceros debile = test: Effects of OTA on viability of plankton species; type: cell-based
Description: as §1, §2, §3, §4, §5

Olisthodiscus luteus = test: Effects of OTA on viability of plankton species; type: cell-based
Description: as §1, §2, §3, §4, §5

Pterosperma cristatum = test: Effects of OTA on viability of plankton species; type: cell-based
Description: as §1, §2, §3, §4, §5

Heterocapsa triguetra = test: Effects of OTA on viability of plankton species; type: cell-based
Description: as §1, §2, §3, §4, §5

Hafniomonas reticulata = test: Effects of OTA on viability of plankton species; type: cell-based
Description: as §1, §2, §3, §4, §5

Chattonella marina = test: Effects of OTA on viability of plankton species; type: cell-based
Description: as §1, §2, §3, §4, §5

Gymnodinium nagasakiense = test: Effects of OTA on viability of plankton species; type: cell-based
Description: as §1, §2, §3, §4, §5

Chattonella antiqua = test: Effects of OTA on viability of plankton species; type: cell-based
Description: as §1, §2, §3, §4, §5

Eutreptia sp. = test: Effects of OTA on viability of plankton species; type: cell-based
Description: as §1, §2, §3, §4, §5

Prorocentrum micans = test: Effects of OTA on viability of plankton species; type: cell-based
Description: as §1, §2, §3, §4, §5

Gymnodinium sanguineum = test: Effects of OTA on viability of plankton species; type: cell-based
Description: as §1, §2, §3, §4, §5

Skeletonema costatum = test: Effects of OTA on viability of plankton species; type: cell-based
Description: as §1, §2, §3, §4, §5

[6] = minimum concentration at which all plankton cytolyzed 30 min after introduction, read-out: EC100

CCCCC/C=C\C/C=C\C/C=C\CCCCC(=O)O [γ-linolenic acid]
LC100 [1]: > 50 ppm
Maximum no effect concentration [1]: < 40 ppm
EC100 (Heterosigma akashiwo [2]; [6]): 25 µg/mL

CCC=CCC=CCC=CCC=CCC=CCCCC(=O)O [Na salt of 5, 8, 11, 14, 17-eicosapentaenoic acid]
LC100 [1]: > 50 ppm
Maximum no effect concentration [1]: < 30 ppm

CCCCC/C=C\C/C=C\C/C=C\C/C=C\CCCC(=O)O [arachidonic acid]
EC100 (Heterosigma akashiwo [2]): 2.5 µg/mL

CCCCC/C=C\C/C=C\CCCCCCCC(=O)O [linoleic acid]
EC100 (Heterosigma akashiwo [2]; [6]): 25 µg/mL

CCCCCCCC/C=C\CCCCCCCC(=O)O [oleic acid]
EC100 (Heterosigma akashiwo [2]): 70 to 80 µg/mL

CC/C=C\C/C=C\C/C=C\C/C=C\CCCCC(=O)O [OTA, 6Z, 9Z, 12Z, 15Z-octadecatetraenoic acid]
LC100 [1]: > 25 ppm
Maximum no effect concentration [1]: < 20 ppm
algicidal activity [3]: strong algicidal activity
Effect on viability ([4]; 5 ppm): ±
Effect on viability ([4]; 25 ppm): ±
Effect on viability (Tetraselmis cordiformis; 5 ppm): ±
Effect on viability (Tetraselmis cordiformis; 25 ppm): ±
EC100 (Heterosigma akashiwo [2]; [6]): 2.5 µg/mL
Effect on viability (Nephroselmis sp.; 5 ppm): + (100% cytolysis of planktons after 2 hr)
Effect on viability (Nephroselmis sp.; 25 ppm): + (100% cytolysis of planktons after 2 hr)
Effect on viability (Stephanopyris palmeriana; 5 ppm): + (100% cytolysis of planktons after 2 hr)
Effect on viability (Stephanopyris palmeriana; 25 ppm): + (100% cytolysis of planktons after 2 hr)
Effect on viability (Heterosigma akashiwo [5]; 5 ppm): + (100% cytolysis of planktons after 2 hr)
Effect on viability (Heterosigma akashiwo [5]; 25 ppm): + (100% cytolysis of planktons after 2 hr)
Effect on viability (Cryptomonas sp.; 5 ppm): + (100% cytolysis of planktons after 2 hr)
Effect on viability (Cryptomonas sp.; 25 ppm): + (100% cytolysis of planktons after 2 hr)
Effect on viability (Chlamydomonas sp.; 5 ppm): + (100% cytolysis of planktons after 2 hr)
Effect on viability (Chlamydomonas sp.; 25 ppm): + (100% cytolysis of planktons after 2 hr)
Effect on viability (Oltmannsiella sp.; 5 ppm): + (100% cytolysis of planktons after 2 hr)
Effect on viability (Oltmannsiella sp.; 25 ppm): + (100% cytolysis of planktons after 2 hr)
Effect on viability (Pyraminonas sp.; 5 ppm): + (100% cytolysis of planktons after 2 hr)
Effect on viability (Pyraminonas sp.; 25 ppm): + (100% cytolysis of planktons after 2 hr)
Effect on viability (Chaetoceros debile; 5 ppm): + (100% cytolysis of planktons after 2 hr)
Effect on viability (Chaetoceros debile; 25 ppm): + (100% cytolysis of planktons after 2 hr)
Effect on viability (Olisthodiscus luteus; 5 ppm): + (100% cytolysis of planktons after 2 hr)
Effect on viability (Olisthodiscus luteus; 25 ppm): + (100% cytolysis of planktons after 2 hr)
Effect on viability (Pterosperma cristatum; 5 ppm): + (100% cytolysis of planktons after 2 hr)
Effect on viability (Pterosperma cristatum; 25 ppm): + (100% cytolysis of planktons after 2 hr)
Effect on viability (Heterocapsa triguetra; 5 ppm): + (100% cytolysis of planktons after 2 hr)
Effect on viability (Heterocapsa triguetra; 25 ppm): + (100% cytolysis of planktons after 2 hr)
Effect on viability (Hafniomonas reticulata; 5 ppm): + (100% cytolysis of planktons after 2 hr)
Effect on viability (Hafniomonas reticulata; 25 ppm): + (100% cytolysis of planktons after 2 hr)
Effect on viability (Chattonella marina; 5 ppm): + (100% cytolysis of planktons after 2 hr)
Effect on viability (Chattonella marina; 25 ppm): + (100% cytolysis of planktons after 2 hr)
Effect on viability (Gymnodinium nagasakiense; 5 ppm): + (100% cytolysis of planktons after 2 hr)
Effect on viability (Gymnodinium nagasakiense; 25 ppm): + (100% cytolysis of planktons after 2 hr)
Effect on viability (Chattonella antiqua; 5 ppm): + (100% cytolysis of planktons after 2 hr)
Effect on viability (Chattonella antiqua; 25 ppm): + (100% cytolysis of planktons after 2 hr)
Effect on viability (Eutreptia sp.; 5 ppm): + (100% cytolysis of planktons after 2 hr)
Effect on viability (Eutreptia sp.; 25 ppm): + (100% cytolysis of planktons after 2 hr)
Effect on viability (Prorocentrum micans; 5 ppm): + (100% cytolysis of planktons after 2 hr)
Effect on viability (Prorocentrum micans; 25 ppm): + (100% cytolysis of planktons after 2 hr)
Effect on viability (Gymnodinium sanguineum; 5 ppm): + (100% cytolysis of planktons after 2 hr)
Effect on viability (Gymnodinium sanguineum; 25 ppm): + (100% cytolysis of planktons after 2 hr)
Effect on viability (Skeletonema costatum; 5 ppm): + (100% cytolysis of planktons after 2 hr)
Effect on viability (Skeletonema costatum; 25 ppm): + (100% cytolysis of planktons after 2 hr)

CCC=CCC=CCC=CCC=CCC=CCCCC(=O)O [5,8, 11, 14, 17-eicosapentaenoic acid]
LC100 [1]: > 30 ppm
Maximum no effect concentration [1]: < 25 ppm
EC100 (Heterosigma akashiwo [2]; [6]): 2.5 µg/mL

CC/C=C\C/C=C\C/C=C\CCCCCCCC(=O)[O-].[Na+] [sodium linolenate]
LC100 [1]: > 150 ppm
Maximum no effect concentration [1]: < 100 ppm
